In US8354407B2 (Boehringer Ingelheim International GmbH, priority 2006, dated 2013):

Each compound was assayed against T1, full-length human PKCα enzyme (Homo sapiens, UniProt P17252) (assay: Assessment of PKC-α Inhibitory Activity (MALDI-TOF kinase assay)). Details: full-length human PKCα 0.12 μg/ml; ATP 45 μM; neurogranin 28-43 peptide 22 μM; 30 minute incubation at 24° C.; MALDI-TOF MS readout.
T1 construct: full-length human PKCα enzyme; purchased Upstate Biotechnology
Assay type: biochemical
Protocol: Measurement of PKCα enzyme activity is performed using full-length human PKCα enzyme (Upstate Biotechnology) at a final concentration of 0.12 μg/ml in a kinase assay buffer (0.09 mg/ml bovine serum albumin (BSA), 210 μM ethylenediaminetetraacetic acid (EDTA), 360 μM CaCl2, 1 mM Tris-HCl, pH=7.5, 0.5 mM MgCl2, 0.015 mg/ml phosphatidylserine and 0.015 mg/ml diacylglycerol). The reaction is initiated by addition of adenosine triphosphate (ATP; final concentration 45 μM) and a peptide substrate consisting of amino acids 28-43 (Ala-Ala-Lys-Ile-Gln-Ala-Ser-Phe-Arg-Gly-His-Met-Ala-Arg-Lys-Lys) of neurogranin (Promega; final concentration 22 μM). After a 30 minute incubation at 24° C. the reaction is terminated by adding 5 μL of the reaction mixture into 50 μL of MALDI matrix solution (5 mg/ml α-cyano-4-hydroxycinnamic acid in 50% Acetonitrile/H2O, 0.1% TFA, 5 mM ammonium phosphate). Two microliters of the stopped reaction mixture is transferred onto a MALDI-TOF mass spectrometer target plate.
All spectra are collected on an Applied Biosystems 4700 Proteomics Analyzer MALDI-TOF MS equipped with a Nd:YAG laser (355 nm, 3 ns pulse width, 200 Hz repetition rate) in negative ion reflector mode. The system is operated with 4700 Explorer software, version 3.0. Automated acquisition parameters are adjusted to capture and average only those individual spectra within defined success criteria. Specifically, signal intensities for the substrate peptide are set to a minimum threshold of 3000 counts and a maximum intensity of 65,000 counts. This ensured that neither null spectra nor saturated spectra are averaged into the final readout. Between 1000 and 1500 laser shots are averaged for each sample. Data are collected in triplicate from 3 successive days to capture the maximum variability related to preparation of enzyme reaction, transfer of samples to MALDI target plates, data collection, and data extraction.
The isotope cluster areas for each peptide substrate and product peaks are extracted into a Microsoft Excel worksheet from the 10×10 array of spectral data simultaneously using the automated analysis function provided within the 4700 Explore software. The isotope cluster area is defined by the software algorithm based on the molecular weight and the general elemental composition of the peptides. The percent conversion (% C) of substrate to product is calculated as the cluster area of the product (P) divided by the sum of the cluster areas of the substrate (S) and the product multiplied by 100 as represented by the following equation: […]
For dose-dependent inhibition studies, the inhibition is plotted as a % Maximal Activity (% MA). Equation one is a measure of the ratio of product to substrate then solving for the % C. However, to measure inhibition of the enzyme activity, one must measure the degree to which that activity (% C) is curtailed. Thus the dose-dependant inhibition data is plotted as % MA where the maximal activity is the % C measured in control reactions with no inhibitor as represented by the following equation: […]

| Structure (SMILES) | IC50 [nM] |
| --- | --- |
| O=S(=O)(Nc1ccccc1)c1cccc(Nc2nccc(NCCCN3CCOCC3)n2)c1 | 23 |
| O=C1CCCN1CCCNc1ccnc(Nc2cccc(Cl)c2)n1 [1-{3-[2-(3-Chlorophenylamino)-pyrimidin-4-ylamino]-propyl}-pyrrolidin-2-one] | 710 |
| O=C(Nc1cccc(Cl)c1)c1cccc(Nc2nccc(NCCCN3CCCC3)n2)c1 [N-(3-Chlorophenyl)-3-[4-(3-pyrrolidin-1-yl-propylamino)-pyrimidin-2-ylamino]-benzamide] | 12 |
| O=C(Nc1cccc(Nc2nccc(NCCCN3CCOCC3)n2)c1)c1ccccc1 [N-{3-[4-(3-Morpholin-4-yl-propylamino)-pyrimidin-2-ylamino]-phenyl}-benzamide] | 25 |
| O=C(Nc1cccc(Nc2nccc(NCCCN3CCOCC3)n2)c1)c1cccnc1 [N-{3-[4-(3-Morpholin-4-yl-propylamino)-pyrimidin-2-ylamino]-phenyl}-nicotinamide] | 112 |
| FC(F)(F)c1cc(Nc2nccc(NCCCN3CCOCC3)n2)cc(C(F)(F)F)c1 [N^2-(3,5-Bis-trifluoromethyl-phenyl)-N^4-(3-morpholin-4-yl-propyl)-pyrimidine-2,4-diamine] | 21 |
| Brc1cccc(Nc2nccc(NCCCN3CCOCC3)n2)c1 [N^2-(3-Bromophenyl)-N^4-(3-morpholin-4-yl-propyl)-pyrimidine-2,4-diamine] | 1 |
| CN1CCC(CNc2ccnc(Nc3cccc(Cl)c3)n2)CC1 [N^2-(3-Chlorophenyl)-N^4-(1-methylpiperidin-4-yl-methyl)-pyrimidine-2,4-diamine] | 30 |
| Clc1cccc(Nc2nccc(NCCCN3CCOCC3)n2)c1 [N^2-(3-Chlorophenyl)-N^4-(3-morpholin-4-yl-propyl)-pyrimidine-2,4-diamine] | 2 |
| CN1C2CCC1CC(Nc1ccnc(Nc3cccc(Cl)c3)n1)C2 (stereo not drawn) [N^2-(3-Chlorophenyl)-N^4-(8-methyl-8-azabicyclo[3.2.1]oct-3-yl)-pyrimidine-2,4-diamine] | 4 |
| CN1CCN(CCCNc2ccnc(Nc3cccc(Cl)c3)n2)CC1 [N^2-(3-Chlorophenyl)-N^4-[3-(4-methylpiperazin-1-yl)-propyl]-pyrimidine-2,4-diamine] | 5 |
| CN1CC[C@@H](CNc2ccnc(Nc3cccc(Cl)c3)n2)C1 [N^2-(3-Chlorophenyl)-N^4-{[(3S)-1-methylpyrrolidin-3-yl]methyl}pyrimidine-2,4-diamine] | 13 |
| Fc1cccc(Nc2nccc(NCCCN3CCOCC3)n2)c1 [N^2-(3-Fluorophenyl)-N^4-(3-morpholin-4-yl-propyl)-pyrimidine-2,4-diamine] | 64 |
| O=[N+]([O-])c1cccc(Nc2nccc(NCCCN3CCCC3)n2)c1 [N^2-(3-Nitrophenyl)-N^4-(3-pyrrolidin-1-yl-propyl)-pyrimidine-2,4-diamine] | 2 |
| Clc1cc(Nc2nccc(NCCCN3CCCC3)n2)ccc1OCc1ccccc1 [N^2-(4-(Benzyloxy)-3-chlorophenyl)-N^4-(3-pyrrolidin-1-yl-propyl)-pyrimidine-2,4-diamine] | 40 |
| c1ccc(-c2cccc(Nc3nccc(NCCCN4CCOCC4)n3)c2)cc1 [N^2-Biphenyl-3-yl-N^4-(3-morpholin-4-yl-propyl)-pyrimidine-2,4-diamine] | 3 |
| CN1CCN(S(=O)(=O)c2cccc(Nc3nccc(NCCCN4CCOCC4)n3)c2)CC1 [N^2-[3-(4-Methyl-piperazine-1-sulfonyl)phenyl]-N^4-(3-morpholin-4-ylpropyl)-pyrimidine-2,4-diamine] | 83 |
| c1cc(Nc2nccc(NCCCN3CCOCC3)n2)cc(-c2nc3ccccc3s2)c1 [N^2-[3-(Benzo[d]thiazol-2-yl)-phenyl]-N^4-(3-morpholin-4-yl-propyl)-pyrimidine-2,4-diamine] | 40 |
| CN(C)c1cccc(Nc2nccc(NCCCN3CCOCC3)n2)c1 [N^2-[3-(N,N-dimethylamino)-phenyl]-N^4-(3-morpholin-4-yl-propyl)-pyrimidine-2,4-diamine] | 53 |
| c1cncc(-c2cccc(Nc3nccc(NCCCN4CCOCC4)n3)c2)c1 [N^2-[3-(Pyridin-3-yl)-phenyl]-N^4-(3-morpholin-4-yl-propyl)-pyrimidine-2,4-diamine] | 28 |
| COc1cccc(Nc2nccc(NCCCN3CCCC3)n2)c1 [N^2-[3-Methoxyphenyl]-N^4-(3-pyrrolidin-1-yl-propyl)-pyrimidine-2,4-diamine] | 16 |

More lines, now with the values ahead:

| IC50 [nM] | Structure (SMILES) |
| --- | --- |
| 52 | O=S(=O)(NCc1cccnc1)c1cccc(Nc2nccc(NCCCN3CCOCC3)n2)c1 [3-[4-(3-Morpholin-4-yl-propylamino)-pyrimidin-2-ylamino]-N-(pyridin-3-ylmethyl)-benzenesulfonamide] |
| 14 | NS(=O)(=O)c1cccc(Nc2nccc(NCCCN3CCOCC3)n2)c1 [3-[4-(3-Morpholin-4-yl-propylamino)-pyrimidin-2-ylamino]-benzenesulfonamide] |
| 344 | CC(C)NC(=O)c1cccc(Nc2nccc(NCCCN3CCCC3)n2)c1 [N-Isopropyl-3-[4-(3-pyrrolidin-1-yl-propylamino)-pyrimidin-2-ylamino]-benzamide] |
| 37 | Clc1cccc(Nc2nccc(NCC3CCNCC3)n2)c1 [N^2-(3-Chloro-phenyl)-N^4-piperidin-4-ylmethyl-pyrimidine-2,4-diamine] |
| 4 | CN1CCCC(CNc2ccnc(Nc3cccc(Cl)c3)n2)C1 (stereo not drawn) [N^2-(3-Chlorophenyl)-N^4-(1-methylpiperidin-3-ylmethyl)-pyrimidine-2,4-diamine] |
| 3 | Clc1cccc(Nc2nccc(NCCCN3CCCC3)n2)c1 [N^2-(3-Chlorophenyl)-N^4-(3-pyrrolidin-1-yl-propyl)-pyrimidine-2,4-diamine] |
| 0.4 | CN1CCCC1CCNc1ccnc(Nc2cccc(Cl)c2)n1 (stereo not drawn) [N^2-(3-Chlorophenyl)-N^4-[2-(1-methylpyrrolidin-2-yl)-ethyl]-pyrimidine-2,4-diamine] |
| 23 | Clc1cccc(Nc2nccc(NCC3CNCCO3)n2)c1 (stereo not drawn) [N^2-(3-Chlorophenyl)-N^4-morpholin-2-ylmethyl-pyrimidine-2,4-diamine] |
| 25 | Clc1cccc(Nc2nccc(NCC3CCCNC3)n2)c1 (stereo not drawn) [N^2-(3-Chlorophenyl)-N^4-piperidin-3-ylmethyl-pyrimidine-2,4-diamine] |
| 7 | CN1CC[C@H](CNc2ccnc(Nc3cccc(Cl)c3)n2)C1 [N^2-(3-Chlorophenyl)-N^4—[(3R)-1-methylpyrrolidin-3-ylmethyl]-pyrimidine-2,4-diamine] |
| 80 | CC(C)c1cccc(Nc2nccc(NCCCN3CCOCC3)n2)c1 [N^2-(3-Isopropylphenyl)-N^4-(3-morpholin-4-yl-propyl)-pyrimidine-2,4-diamine] |
| 40 | Cc1cccc(Nc2nccc(NCCCN3CCCC3)n2)c1 [N^2-(3-Methylphenyl)-N^4-(3-pyrrolidin-1-yl-propyl)-pyrimidine-2,4-diamine] |
| 1 | O=[N+]([O-])c1cccc(Nc2nccc(NCCCN3CCOCC3)n2)c1 [N^2-(3-Nitrophenyl)-N^4-(3-morpholin-4-yl-propyl)-pyrimidine-2,4-diamine] |
| 50 | c1ccc(Oc2cccc(Nc3nccc(NCCCN4CCOCC4)n3)c2)cc1 [N^2-(3-Phenoxyphenyl)-N^4-(3-morpholin-4-yl-propyl)-pyrimidine-2,4-diamine] |
| 18 | c1cc(Cc2cc3ccccc3[nH]2)cc(Nc2nccc(NCCCN3CCOCC3)n2)c1 [N^2-[3-(1H-Indol-2-ylmethyl)-phenyl]-N^4-(3-morpholin-4-yl-propyl)-pyrimidine-2,4-diamine] |
| 12 | c1cc(Nc2nccc(NCCCN3CCOCC3)n2)cc(-c2cccc3[nH]ccc23)c1 [N^2-[3-(1H-Indol-4-yl)-phenyl]-N^4-(3-morpholin-4-yl-propyl)-pyrimidine-2,4-diamine] |
| 0.5 | FC(F)(F)c1cccc(Nc2nccc(NCCCN3CCCC3)n2)c1 [N^2-[3-Trifluoromethyl-phenyl]-N^4-(3-pyrrolidin-1-yl-propyl)-pyrimidine-2,4-diamine] |
| 465 | OCc1cccc(Nc2nccc(NCCCN3CCOCC3)n2)c1 [{3-[4-(3-Morpholin-4-yl-propylamino)-pyrimidin-2-ylamino]-phenyl}-methanol] |
